Assay results published in US9522891B2, “Pyridazine derivatives and use thereof as medicaments for treating microRNA viral infection” (INSTITUTE OF PHARMACOLOGY AND TOXICOLOGY ACADEMY OF …, priority 2010, dated 2016).
Values after ≈ are worked out from the molar mass of the structure shown. One block for each compound: values may come before it.

Legend:
HeLa cells = assay: Determination of the maximum nontoxic dose of the compound; type: cell-based; conditions: observed each 24 h for 3 days
Description: The drug was dissolved in DMSO, diluted with cell maintenance medium by 20 times, then diluted stepwise by 2 times to form working solutions with different concentrations. HeLa cells were inoculated on 96-well plate in an amount of 10,000 (0.1 mL) per well, added with 0.1 mL maintenance medium, incubated at 37° C. in adherence manner, sucked to remove maintenance medium, replaced it with 0.2 mL of compound working solution, and maintenance medium was used as control. The growth of cell was observed each 24 h, for 3 days.

rhinovirus 3 (HRV-3) [1] = assay: Prophylactic administration, cell protection from CPE; type: cell-based; conditions: 100 ng/ml, TCID50 about 100, 3 days
rhinovirus 3 (HRV-3) [2] = assay: Therapeutic administration, cell protection from CPE; type: cell-based
rhinovirus 3 (HRV-3) [3] = assay: Measurement of half effective concentration (therapy); type: cell-based; conditions: Enterovirus, HRV3, HeLa cells, TCID50 about 100, 48 h, prevents 50% cells from CPE
rhinovirus 3 (HRV-3) [4] = assay: Measurement of inhibition index of compound; type: cell-based; conditions: highest dilution times of viral inhibition/nontoxic limit dilution times
Description: The inhibition index of drug was calculated: inhibition index=highest dilution times of viral inhibition/nontoxic limit dilution times.

rhinovirus 3 (HRV-3) [5] = assay: Maximum viral inhibition concentration; type: cell-based; conditions: compound concentration giving 100% inhibition of TCID50 about 100; virus added in doubling manner
rhinovirus (HRV) = conditions: cited from earlier work
[6] = Bioorg Med Chem. 2009, 17: 621-624; cited from earlier work

EC50 (rhinovirus 3 (HRV-3) [3]): 0.025 µg/mL (≈ 0.0629 µM)
SMILES: CCOc1ccc(OCCN2CCN(c3cc(Cl)nnc3Cl)CC2)cc1 [Control 2, 3,6-dichloro-4-{4-[2-(4-ethoxylphenoxy)ethyl]piperazin-1-yl}pyridazine]
Maximum nontoxic dose (HeLa cells): 31.3 µg/mL
protection effects in preventing phagocytosis (CPE) (rhinovirus 3 (HRV-3) [1]): good protection effects
protection effects (rhinovirus 3 (HRV-3) [2]; therapeutic administration condition): good protection effects
Cell protection rate (rhinovirus 3 (HRV-3) [2]; therapeutic administration, 100 ng/mL, TCID50 100, HeLa cells, 48 h): 100%
Inhibition index (rhinovirus 3 (HRV-3) [4]): 1/625
Maximum inhibition virus titer (rhinovirus 3 (HRV-3) [5]): ≦200 TCID50
index of selectivity (rhinovirus (HRV); Bioorg Med Chem. 2009, 17: 621-624): relatively high index of selectivity
inhibition activity to HRV (rhinovirus (HRV); compared to Pirodavir, Bioorg Med Chem. 2009, 17: 621-624): activity comparable to Pirodavir
toxicity [6]: relatively low toxicity

melting point: 125 to 127 °C
SMILES: CCOc1ccc(OCCCN2CCN(c3ccc(Cl)nn3)CC2)cc1 [Example 1, 3-{4-[3-(4-ethoxylphenoxy)propyl]piperazin-1-yl}-6-chloropyridazine]

melting point: 129 to 131 °C
SMILES: Cc1ccc(OCCCN2CCN(c3ccc(Cl)nn3)CC2)cc1 [Example 2, 3-{4-[3-(4-methylphenoxy)propyl]piperazin-1-yl}-6-chloropyridazine]

melting point: 123 to 125 °C
SMILES: CCc1ccc(OCCCN2CCN(c3ccc(Cl)nn3)CC2)cc1 [Example 3, 3-{4-[3-(4-ethylphenoxy)propyl]piperazin-1-yl}-6-chloropyridazine]

melting point: 125 to 127 °C
SMILES: CC(C)c1ccc(OCCCN2CCN(c3ccc(Cl)nn3)CC2)cc1 [Example 4, 3-{4-[3-(4-isopropylphenoxy)propyl]piperazin-1-yl}-6-chloropyridazine]

melting point: 128 to 130 °C
SMILES: COC(=O)c1ccc(OCCCN2CCN(c3ccc(Cl)nn3)CC2)cc1 [Example 5, 4-{3-[4-(6-chloropyridazin-3-yl)piperazin-1-yl]propoxy} benzoic acid methyl ester]

melting point: 125 to 127 °C
SMILES: CCOC(=O)c1ccc(OCCCN2CCN(c3ccc(Cl)nn3)CC2)cc1 [Example 6, 4-{3-[4-(6-chloropyridazin-3-yl)piperazin-1-yl]propoxy}benzoic acid ethyl ester]

SMILES: CCOC(=O)c1ccc(OCCC2CCN(c3ccc(C)nn3)CC2)cc1 [Pirodavir]
activity against rhinovirus (HRV) (rhinovirus (HRV); in vivo and in vitro, literature): significant activity
